# Values of other authors, collected in article PMC9851200, “Multiparameter phenotypic screening for endogenous TFEB and TFE3 translocation identifies novel chemical series modulating lysosome function” (Autophagy, 2022).
# Tests used:
# Design in all cases: method as in original PKIS2 published data
# [1] = biological target: kinases (KINOMEscan panel) (Homo sapiens, UniProt Q16584); details: kinase MAP3K11; Published KINOMEscan; ref original PKIS2 published data; cited from earlier work
# [2] = biological target: kinases (KINOMEscan panel) (Homo sapiens, UniProt Q13233); details: MAP3K1; Published KINOMEscan; ref original PKIS2 published data; cited from earlier work
# [3] = biological target: kinases (KINOMEscan panel) (Homo sapiens, UniProt Q9UEW8); details: Published KINOMEscan; ref original PKIS2 published data; cited from earlier work
# [4] = biological target: kinases (KINOMEscan panel) (Homo sapiens, UniProt Q9Y6M4); details: CSNK1G3; Published KINOMEscan; ref original PKIS2 published data; cited from earlier work
# Sequence of kinases (KINOMEscan panel) (Homo sapiens, UniProt Q9Y6M4) (Q9Y6M4 whole entry): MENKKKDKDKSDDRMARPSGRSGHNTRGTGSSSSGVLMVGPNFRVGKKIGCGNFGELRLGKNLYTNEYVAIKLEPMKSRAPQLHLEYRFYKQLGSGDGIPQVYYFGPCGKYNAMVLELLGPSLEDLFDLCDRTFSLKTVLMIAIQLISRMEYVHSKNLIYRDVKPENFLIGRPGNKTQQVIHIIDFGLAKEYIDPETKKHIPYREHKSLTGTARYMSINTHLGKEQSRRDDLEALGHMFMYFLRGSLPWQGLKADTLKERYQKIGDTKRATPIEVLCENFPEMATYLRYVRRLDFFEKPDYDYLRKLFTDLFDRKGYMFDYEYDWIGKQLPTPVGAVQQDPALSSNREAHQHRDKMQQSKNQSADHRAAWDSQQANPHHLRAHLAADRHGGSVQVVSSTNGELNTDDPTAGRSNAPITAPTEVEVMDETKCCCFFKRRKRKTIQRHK
# [5] = biological target: kinases (KINOMEscan panel) (Homo sapiens, UniProt Q14004); details: cited from earlier work
# [6] = biological target: kinases (KINOMEscan panel) (Homo sapiens, UniProt P24941); details: CDK2; Published KINOMEscan; ref original PKIS2 published data; cited from earlier work
# [7] = biological target: kinases (KINOMEscan panel) (Homo sapiens, UniProt P54756); details: kinase EPHA5; Published KINOMEscan; ref original PKIS2 published data; cited from earlier work
# [8] = biological target: kinases (KINOMEscan panel) (Homo sapiens, UniProt O00750); details: PIK3C2B; Published KINOMEscan; ref original PKIS2 published data; cited from earlier work
# Sequence of kinases (KINOMEscan panel) (Homo sapiens, UniProt O00750) (O00750 whole entry): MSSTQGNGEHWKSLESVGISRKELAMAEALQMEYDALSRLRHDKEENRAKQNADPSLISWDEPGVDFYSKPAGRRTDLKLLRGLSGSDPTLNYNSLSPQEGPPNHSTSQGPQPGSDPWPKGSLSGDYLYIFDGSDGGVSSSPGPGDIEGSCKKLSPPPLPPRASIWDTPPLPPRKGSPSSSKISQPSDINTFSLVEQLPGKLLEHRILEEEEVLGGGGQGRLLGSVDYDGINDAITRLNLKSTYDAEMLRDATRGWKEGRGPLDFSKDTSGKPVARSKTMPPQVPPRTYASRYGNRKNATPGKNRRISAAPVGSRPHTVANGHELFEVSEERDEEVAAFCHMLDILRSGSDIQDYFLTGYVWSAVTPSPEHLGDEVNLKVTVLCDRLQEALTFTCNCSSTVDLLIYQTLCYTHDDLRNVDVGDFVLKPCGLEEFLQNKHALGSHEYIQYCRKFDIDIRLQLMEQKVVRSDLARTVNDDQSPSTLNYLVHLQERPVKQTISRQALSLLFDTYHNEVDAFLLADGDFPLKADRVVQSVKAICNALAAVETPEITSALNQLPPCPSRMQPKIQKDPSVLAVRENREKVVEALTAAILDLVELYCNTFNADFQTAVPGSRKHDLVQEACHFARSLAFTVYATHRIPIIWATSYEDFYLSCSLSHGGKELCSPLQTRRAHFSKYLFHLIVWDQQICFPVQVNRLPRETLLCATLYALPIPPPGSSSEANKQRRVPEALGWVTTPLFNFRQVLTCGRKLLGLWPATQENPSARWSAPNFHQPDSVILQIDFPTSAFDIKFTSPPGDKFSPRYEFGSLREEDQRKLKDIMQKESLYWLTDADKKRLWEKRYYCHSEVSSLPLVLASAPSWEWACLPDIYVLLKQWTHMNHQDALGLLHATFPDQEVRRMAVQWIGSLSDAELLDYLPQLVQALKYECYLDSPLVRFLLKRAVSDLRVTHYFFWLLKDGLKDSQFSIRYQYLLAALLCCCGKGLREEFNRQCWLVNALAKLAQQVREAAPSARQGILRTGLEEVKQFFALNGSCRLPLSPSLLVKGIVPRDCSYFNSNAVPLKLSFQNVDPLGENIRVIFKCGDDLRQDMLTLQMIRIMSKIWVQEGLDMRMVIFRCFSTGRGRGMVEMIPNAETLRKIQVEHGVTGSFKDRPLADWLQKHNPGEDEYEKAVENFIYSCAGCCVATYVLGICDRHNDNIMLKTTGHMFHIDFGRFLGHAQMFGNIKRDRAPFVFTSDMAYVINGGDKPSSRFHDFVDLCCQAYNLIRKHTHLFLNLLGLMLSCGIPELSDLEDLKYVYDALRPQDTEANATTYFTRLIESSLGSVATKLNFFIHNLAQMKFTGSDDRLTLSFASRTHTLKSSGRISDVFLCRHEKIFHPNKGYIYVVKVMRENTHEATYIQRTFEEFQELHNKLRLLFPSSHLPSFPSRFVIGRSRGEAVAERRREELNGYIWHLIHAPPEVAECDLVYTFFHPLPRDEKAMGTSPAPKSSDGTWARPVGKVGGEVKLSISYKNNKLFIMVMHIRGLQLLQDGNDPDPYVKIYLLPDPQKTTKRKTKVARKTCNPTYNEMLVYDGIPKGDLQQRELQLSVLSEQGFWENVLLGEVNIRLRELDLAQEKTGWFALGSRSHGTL
# [9] = biological target: kinases (KINOMEscan panel) (Homo sapiens, UniProt Q13627); details: Published KINOMEscan; ref original PKIS2 published data; cited from earlier work
# [10] = biological target: kinases (KINOMEscan panel) (Homo sapiens, UniProt Q9NQU5); details: PAK6; Published KINOMEscan; ref original PKIS2 published data; cited from earlier work
# [11] = biological target: kinases (KINOMEscan panel) (Homo sapiens, UniProt P54764); details: EPHA4; Published KINOMEscan; ref original PKIS2 published data; cited from earlier work
# [12] = biological target: kinases (KINOMEscan panel) (Homo sapiens, UniProt O43683); details: kinase BUB1; Published KINOMEscan; ref original PKIS2 published data; cited from earlier work
# Sequence of kinases (KINOMEscan panel) (Homo sapiens, UniProt O43683) (O43683 whole entry): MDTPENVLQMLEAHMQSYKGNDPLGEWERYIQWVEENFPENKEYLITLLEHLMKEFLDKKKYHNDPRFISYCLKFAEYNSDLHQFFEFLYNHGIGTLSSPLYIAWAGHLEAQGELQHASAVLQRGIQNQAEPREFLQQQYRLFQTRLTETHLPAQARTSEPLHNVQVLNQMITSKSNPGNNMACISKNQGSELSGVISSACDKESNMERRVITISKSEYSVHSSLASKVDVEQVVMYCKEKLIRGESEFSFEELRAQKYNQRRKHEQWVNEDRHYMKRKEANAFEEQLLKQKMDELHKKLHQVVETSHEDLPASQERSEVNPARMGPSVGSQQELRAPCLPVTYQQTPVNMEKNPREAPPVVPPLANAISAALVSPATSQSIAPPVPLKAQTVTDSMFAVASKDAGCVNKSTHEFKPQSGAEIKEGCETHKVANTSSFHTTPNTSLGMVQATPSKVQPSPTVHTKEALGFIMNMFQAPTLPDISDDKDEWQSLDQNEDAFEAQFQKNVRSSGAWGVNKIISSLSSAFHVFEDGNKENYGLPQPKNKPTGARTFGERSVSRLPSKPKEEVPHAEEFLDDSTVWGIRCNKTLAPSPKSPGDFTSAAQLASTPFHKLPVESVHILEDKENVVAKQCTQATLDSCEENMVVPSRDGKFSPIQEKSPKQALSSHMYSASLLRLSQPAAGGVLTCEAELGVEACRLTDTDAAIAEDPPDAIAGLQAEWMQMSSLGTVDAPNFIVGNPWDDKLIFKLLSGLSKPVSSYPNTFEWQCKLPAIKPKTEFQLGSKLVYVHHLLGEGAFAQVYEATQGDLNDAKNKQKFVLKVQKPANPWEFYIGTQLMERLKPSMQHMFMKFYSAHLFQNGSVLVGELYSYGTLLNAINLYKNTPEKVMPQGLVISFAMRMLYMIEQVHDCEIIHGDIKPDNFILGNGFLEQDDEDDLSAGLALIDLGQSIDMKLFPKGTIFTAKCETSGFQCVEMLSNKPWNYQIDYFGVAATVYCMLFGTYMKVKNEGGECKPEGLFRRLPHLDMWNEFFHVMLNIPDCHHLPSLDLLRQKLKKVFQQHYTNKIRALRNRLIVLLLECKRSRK
# [13] = biological target: T1, kinases (KINOMEscan panel) (Homo sapiens, UniProt O14976); details: kinase GAK; Published KINOMEscan; ref original PKIS2 published data; cited from earlier work
# T1 sequence (O14976 1-1311): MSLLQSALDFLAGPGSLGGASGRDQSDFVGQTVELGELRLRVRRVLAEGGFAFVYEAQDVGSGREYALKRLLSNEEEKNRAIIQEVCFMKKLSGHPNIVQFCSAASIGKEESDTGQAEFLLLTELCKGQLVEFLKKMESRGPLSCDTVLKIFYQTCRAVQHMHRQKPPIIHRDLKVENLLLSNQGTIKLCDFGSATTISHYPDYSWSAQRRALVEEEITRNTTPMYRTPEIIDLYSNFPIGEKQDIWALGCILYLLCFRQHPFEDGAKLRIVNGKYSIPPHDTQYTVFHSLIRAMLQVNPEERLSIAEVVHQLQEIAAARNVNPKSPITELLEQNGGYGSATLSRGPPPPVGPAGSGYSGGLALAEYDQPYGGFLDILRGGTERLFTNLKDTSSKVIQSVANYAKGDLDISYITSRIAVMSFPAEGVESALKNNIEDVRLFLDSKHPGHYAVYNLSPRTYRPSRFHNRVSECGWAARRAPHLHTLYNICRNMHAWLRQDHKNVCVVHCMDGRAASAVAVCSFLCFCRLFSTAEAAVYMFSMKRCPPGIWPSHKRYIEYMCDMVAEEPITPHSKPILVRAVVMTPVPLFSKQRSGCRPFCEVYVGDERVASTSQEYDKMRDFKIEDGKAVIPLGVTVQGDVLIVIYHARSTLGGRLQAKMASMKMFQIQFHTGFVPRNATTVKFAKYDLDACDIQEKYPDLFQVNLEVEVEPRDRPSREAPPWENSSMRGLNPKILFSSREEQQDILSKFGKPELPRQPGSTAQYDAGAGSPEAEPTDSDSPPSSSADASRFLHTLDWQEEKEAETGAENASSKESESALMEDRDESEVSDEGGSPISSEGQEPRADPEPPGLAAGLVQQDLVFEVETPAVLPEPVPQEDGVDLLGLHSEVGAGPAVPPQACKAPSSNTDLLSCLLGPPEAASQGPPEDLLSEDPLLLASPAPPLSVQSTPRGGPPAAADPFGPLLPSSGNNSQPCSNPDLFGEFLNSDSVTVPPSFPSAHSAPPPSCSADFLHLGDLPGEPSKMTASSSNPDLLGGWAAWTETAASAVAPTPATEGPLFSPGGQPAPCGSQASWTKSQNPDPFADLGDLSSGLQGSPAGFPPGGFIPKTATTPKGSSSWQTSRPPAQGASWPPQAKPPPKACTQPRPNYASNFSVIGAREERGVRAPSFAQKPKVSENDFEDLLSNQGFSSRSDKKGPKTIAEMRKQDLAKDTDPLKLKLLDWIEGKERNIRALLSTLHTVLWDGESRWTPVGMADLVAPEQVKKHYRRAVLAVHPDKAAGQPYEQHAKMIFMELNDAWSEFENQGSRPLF
# [14] = biological target: kinases (KINOMEscan panel) (Homo sapiens, UniProt Q9UKE5); details: TNIK; Published KINOMEscan; ref original PKIS2 published data; cited from earlier work
# [15] = biological target: kinases (KINOMEscan panel) (Homo sapiens, UniProt Q9P286); details: kinase PAK5; Published KINOMEscan; ref original PKIS2 published data; cited from earlier work
# Sequence of kinases (KINOMEscan panel) (Homo sapiens, UniProt Q9P286) (Q9P286 whole entry): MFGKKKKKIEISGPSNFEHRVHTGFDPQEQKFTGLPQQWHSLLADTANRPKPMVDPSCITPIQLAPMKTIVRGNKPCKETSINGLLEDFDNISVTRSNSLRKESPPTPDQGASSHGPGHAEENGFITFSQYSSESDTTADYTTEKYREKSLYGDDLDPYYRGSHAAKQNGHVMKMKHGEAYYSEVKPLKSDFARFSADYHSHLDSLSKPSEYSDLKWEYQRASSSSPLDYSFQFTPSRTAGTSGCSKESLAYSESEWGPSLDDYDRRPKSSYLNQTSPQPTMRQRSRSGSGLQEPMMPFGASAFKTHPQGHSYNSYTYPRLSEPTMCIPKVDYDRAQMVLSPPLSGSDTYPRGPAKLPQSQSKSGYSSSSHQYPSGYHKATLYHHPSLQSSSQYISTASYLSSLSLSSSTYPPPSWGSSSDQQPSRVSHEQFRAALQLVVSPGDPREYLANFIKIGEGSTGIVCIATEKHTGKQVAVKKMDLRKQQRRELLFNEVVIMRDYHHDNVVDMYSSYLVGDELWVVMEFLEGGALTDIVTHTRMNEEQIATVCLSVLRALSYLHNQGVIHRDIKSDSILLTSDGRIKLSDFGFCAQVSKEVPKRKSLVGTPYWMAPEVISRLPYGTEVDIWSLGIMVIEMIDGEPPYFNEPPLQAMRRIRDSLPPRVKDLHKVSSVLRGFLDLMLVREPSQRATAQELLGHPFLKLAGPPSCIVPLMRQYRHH
# Sequence of kinases (KINOMEscan panel) (Homo sapiens, UniProt Q16584) (Q16584 whole entry): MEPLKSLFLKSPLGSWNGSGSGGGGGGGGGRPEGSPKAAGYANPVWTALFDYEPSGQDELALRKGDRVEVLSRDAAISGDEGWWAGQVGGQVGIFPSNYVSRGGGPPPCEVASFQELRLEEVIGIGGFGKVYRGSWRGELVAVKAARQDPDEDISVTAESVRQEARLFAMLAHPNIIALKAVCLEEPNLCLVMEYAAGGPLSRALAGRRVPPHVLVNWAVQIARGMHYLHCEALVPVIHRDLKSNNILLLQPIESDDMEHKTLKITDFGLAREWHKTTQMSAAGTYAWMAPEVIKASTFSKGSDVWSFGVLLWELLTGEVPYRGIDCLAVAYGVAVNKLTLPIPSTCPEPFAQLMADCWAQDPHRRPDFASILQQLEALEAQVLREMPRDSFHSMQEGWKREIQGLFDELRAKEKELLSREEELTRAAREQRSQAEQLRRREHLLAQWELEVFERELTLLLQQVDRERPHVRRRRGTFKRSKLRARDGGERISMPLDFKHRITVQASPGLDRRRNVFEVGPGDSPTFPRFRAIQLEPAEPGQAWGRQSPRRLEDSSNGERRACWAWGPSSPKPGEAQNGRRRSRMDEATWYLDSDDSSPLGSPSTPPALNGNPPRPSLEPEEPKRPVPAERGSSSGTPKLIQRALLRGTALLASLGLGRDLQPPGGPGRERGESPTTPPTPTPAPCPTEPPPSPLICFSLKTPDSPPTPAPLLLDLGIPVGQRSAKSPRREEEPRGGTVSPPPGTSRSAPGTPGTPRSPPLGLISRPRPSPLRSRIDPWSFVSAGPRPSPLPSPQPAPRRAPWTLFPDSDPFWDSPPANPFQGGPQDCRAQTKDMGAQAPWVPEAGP
compound,measurement,setting,value
Cc1cccc(-c2nc(Nc3ccncc3)c3ccccc3n2)n1 [NK215],KINOMEscan MAP3K11,[1],6
same,KINOMEscan MAP3K1,[2],0
same,KINOMEscan STK39,[3],0
same,KINOMEscan CSNK1G3,[4],12
same,KINOMEscan CDK13,[5],0
same,KINOMEscan CDK2,[6],0
same,KINOMEscan EPHA5,[7],0
same,KINOMEscan PIK3C2B,[8],0
same,KINOMEscan DYRK1A,[9],0
same,KINOMEscan PAK6,[10],3
same,KINOMEscan EPHA4,[11],18
same,KINOMEscan BUB1,[12],0
same,KINOMEscan GAK,[13],0
same,KINOMEscan TNIK,[14],29
same,KINOMEscan PAK5,[15],0
